Values after ≈ are worked out from the molar mass of the structure shown.

For eight compounds, MIC and ED50 results are on record in ChEMBL document CHEMBL1126257, “Fluoronaphthyridines and -quinolones as antibacterial agents. 5. Synthesis and antimicrobial activity of chiral 1-tert-butyl-6-fluoro-7-substituted-naphthyridones” (J Med Chem, 1992).

The subject of one experiment is Enterococcus faecium. Kind of experiment: In vitro antibacterial activity against Enterococcus faecium A 24885. Format: functional.
For the next experiment, the system named is Serratia marcescens. Kind of experiment: In vitro antibacterial activity against Serratia marcescens A 20019. Format: functional.
A further experiment deals with Enterococcus faecalis. Kind of experiment: In vitro antibacterial activity against Enterococcus faecalis A9809. Type of experiment: functional.
Experiment [1] has as its system Escherichia coli. The experiment can be described thus: In vitro antibacterial activity against Escherichia coli A 15119. Format: functional.
The subject of the next experiment is Morganella morganii. The experiment can be described thus: In vitro antibacterial activity against Morganella morganii A 15153. Type of experiment: functional.
Another experiment deals with Enterobacter cloacae. The experiment can be described thus: In vitro antibacterial activity against Enterobacter cloacae A 9656. Type of experiment: functional.
In experiment [2] the test system is Klebsiella pneumoniae. The experiment can be described thus: In vitro antibacterial activity against Klebsiella pneumoniae A 9664. Format: functional.
For experiment [3], the system named is Staphylococcus aureus. Kind of experiment: In vitro antibacterial activity against Staphylococcus aureus A9537. Format: functional.
Experiment [4] has as its system Pseudomonas aeruginosa. Kind of experiment: In vitro antibacterial activity against Pseudomonas aeruginosa A 9243. Format: functional.
Experiment [5] relates to Staphylococcus aureus. The experiment can be described thus: animal or person. The following applies: in Mus musculus, po, read-out: PD50.
Description: In vivo potency on systemic infection caused by Staphylococcus aureus A9537 after oral administration to mice expressed as median protective dose.
Experiment [6] deals with Escherichia coli. The experiment can be described thus: (§1) In vivo potency on systemic infection caused by after oral administration to mice expressed as median protective dose. Format: functional. The following applies: read-out: PD50.
Experiment [7] has as its system Pseudomonas aeruginosa. The experiment is described as §1. Format: functional. The following applies: read-out: PD50.
Experiment [8] relates to Klebsiella pneumoniae. The experiment is described as §1. Format: functional. The following applies: read-out: PD50.
Experiment [9] concerns Klebsiella pneumoniae. Kind of experiment: In vivo potency on systemic infection caused by Klebsiella pneumoniae A 9664 after oral administration to mice expressed as median protective dose. Type of experiment: functional. The conditions noted are these: read-out: PD50.
The test system of experiment [10] is Escherichia coli. The experiment can be described thus: In vivo potency on systemic infection caused by Escherichia coli A 15119 after oral administration to mice expressed as median protective dose. The following applies: read-out: PD50. Format: functional.
Where [11] appears, read: Enterococcus faecium, read-out: MIC.
Setting [12] is: Serratia marcescens, read-out: MIC.
Where [13] appears, read: Enterococcus faecalis, read-out: MIC.
Where [14] appears, read: Escherichia coli, read-out: MIC.
[15] abbreviates: Morganella morganii, read-out: MIC.
Setting [16] is: Enterobacter cloacae, read-out: MIC.
Setting [17] is: Klebsiella pneumoniae, read-out: MIC.
The mark [18] stands for this setting: Staphylococcus aureus, read-out: MIC.
Setting [19] is: Pseudomonas aeruginosa, read-out: MIC.

Turning to `CN[C@@H]1CCN(c2nc3c(cc2F)c(=O)c(C(=O)O)cn3C(C)(C)C)C1`, the MIC in the experiment with Enterococcus faecium (setting [11]) worked out at 8 µg/mL (≈ 22.1 µM); with Serratia marcescens (setting [12]) it was 0.5 µg/mL (≈ 1.38 µM); in the experiment on Enterococcus faecalis (setting [13]) it was 1 µg/mL (≈ 2.76 µM); in the experiment on Escherichia coli [1] (setting [14]), 0.06 µg/mL (≈ 0.166 µM); in the experiment with Morganella morganii (setting [15]) it was 0.5 µg/mL (≈ 1.38 µM); in the experiment with Enterobacter cloacae (setting [16]), 0.13 µg/mL (≈ 0.359 µM). Besides, the MIC was determined as 0.13 µg/mL (≈ 0.359 µM) in the experiment on Klebsiella pneumoniae [2] (setting [17]), 0.03 µg/mL (≈ 0.0828 µM) with Staphylococcus aureus [3] (setting [18]) and 1 µg/mL (≈ 2.76 µM) in the experiment with Pseudomonas aeruginosa [4] (setting [19]).

Turning to `C[C@@H]1C[C@@H](N)CN1c1nc2c(cc1F)c(=O)c(C(=O)O)cn2C(C)(C)C` (stereo in doubt; 68), the MIC came to 0.5 µg/mL (≈ 1.38 µM) with Enterococcus faecium; 0.5 µg/mL (≈ 1.38 µM) in the experiment with Serratia marcescens; 0.03 µg/mL (≈ 0.0828 µM) in the experiment on Enterococcus faecalis; 0.016 µg/mL (≈ 0.0441 µM) in the experiment with Escherichia coli [1]; 0.25 µg/mL (≈ 0.69 µM) in the experiment with Morganella morganii; 0.13 µg/mL (≈ 0.359 µM) against Enterobacter cloacae. Further, the values for the minimal inhibitory concentration (MIC) in the experiment with Klebsiella pneumoniae [2] (setting [17]), in the experiment on Staphylococcus aureus [3] and with Pseudomonas aeruginosa [4] were 0.5 µg/mL (≈ 1.38 µM), 0.002 µg/mL (≈ 0.00552 µM) and 0.5 µg/mL (≈ 1.38 µM), respectively. In addition, the ED50 with Staphylococcus aureus [5] turned out to be 0.9 mg/kg; in the experiment with Escherichia coli [6] it was 2.6 mg/kg; in the experiment with Pseudomonas aeruginosa [7], 14.4 mg/kg; in the experiment on Klebsiella pneumoniae [8], 8.2 mg/kg.

Turning to `C[C@H]1C[C@@H](N)CN1c1nc2c(cc1F)c(=O)c(C(=O)O)cn2C(C)(C)C`, the MIC in the experiment on Enterococcus faecium (setting [11]) turned out to be 2 µg/mL (≈ 5.52 µM); with Serratia marcescens (setting [12]), 0.5 µg/mL (≈ 1.38 µM); in the experiment on Enterococcus faecalis (setting [13]) it was 0.25 µg/mL (≈ 0.69 µM); with Escherichia coli [1] (setting [14]), 0.03 µg/mL (≈ 0.0828 µM); in the experiment on Morganella morganii (setting [15]), 0.5 µg/mL (≈ 1.38 µM); with Enterobacter cloacae (setting [16]) it was 0.03 µg/mL (≈ 0.0828 µM). For the same compound, the MIC came out at 0.06 µg/mL (≈ 0.166 µM) with Klebsiella pneumoniae [2] (setting [17]), 0.015 µg/mL (≈ 0.0414 µM) with Staphylococcus aureus [3] (setting [18]) and 2 µg/mL (≈ 5.52 µM) with Pseudomonas aeruginosa [4] (setting [19]).

Turning to `CC(C)(C)n1cc(C(=O)O)c(=O)c2cc(F)c(N3CC[C@H](N)C3)nc21`, the MIC with Enterococcus faecium (setting [11]) came to 0.5 µg/mL (≈ 1.44 µM); in the experiment on Serratia marcescens (setting [12]), 0.13 µg/mL (≈ 0.373 µM); in the experiment with Enterococcus faecalis (setting [13]), 0.03 µg/mL (≈ 0.0861 µM); in the experiment with Escherichia coli [1] (setting [14]), 0.015 µg/mL (≈ 0.0431 µM); in the experiment on Morganella morganii (setting [15]), 0.13 µg/mL (≈ 0.373 µM); with Enterobacter cloacae (setting [16]), 0.13 µg/mL (≈ 0.373 µM). The values for the MIC with Klebsiella pneumoniae [2] (setting [17]), with Staphylococcus aureus [3] (setting [18]) and in the experiment on Pseudomonas aeruginosa [4] (setting [19]) were 0.03 µg/mL (≈ 0.0861 µM), 0.0005 µg/mL (≈ 0.00144 µM) and 0.13 µg/mL (≈ 0.373 µM), respectively. Further, the ED50 with Klebsiella pneumoniae [9] was found to be 3.5 mg/kg; with Escherichia coli [10], 1.2 mg/kg.

Consider `C[C@H]1CN(c2nc3c(cc2F)c(=O)c(C(=O)O)cn3C(C)(C)C)C[C@@H]1N`, for which the MIC in the experiment on Enterococcus faecium (setting [11]) was found to be 4 µg/mL (≈ 11 µM); with Serratia marcescens (setting [12]), 0.5 µg/mL (≈ 1.38 µM); in the experiment with Enterococcus faecalis (setting [13]) it was 0.25 µg/mL (≈ 0.69 µM); in the experiment on Escherichia coli [1] (setting [14]) it was 0.06 µg/mL (≈ 0.166 µM); with Morganella morganii (setting [15]), 0.25 µg/mL (≈ 0.69 µM); in the experiment on Enterobacter cloacae (setting [16]) it was 0.03 µg/mL (≈ 0.0828 µM). For the same compound, the MIC is 0.25 µg/mL (≈ 0.69 µM) in the experiment on Klebsiella pneumoniae [2] (setting [17]), 0.015 µg/mL (≈ 0.0414 µM) in the experiment with Staphylococcus aureus [3] (setting [18]) and 2 µg/mL (≈ 5.52 µM) with Pseudomonas aeruginosa [4] (setting [19]).

With `C[C@@H]1C[C@@H](N)CN1c1nc2c(cc1F)c(=O)c(C(=O)O)cn2C(C)(C)C` (stereo in doubt; 67), the minimum inhibitory concentration (MIC) in the experiment with Enterococcus faecium stood at 8 µg/mL (≈ 22.1 µM); in the experiment with Serratia marcescens, 2 µg/mL (≈ 5.52 µM); against Enterococcus faecalis, 1 µg/mL (≈ 2.76 µM); in the experiment with Escherichia coli [1], 0.25 µg/mL (≈ 0.69 µM); in the experiment with Morganella morganii, 4 µg/mL (≈ 11 µM); with Enterobacter cloacae, 0.5 µg/mL (≈ 1.38 µM). Further, the MIC stood at 0.5 µg/mL (≈ 1.38 µM) in the experiment with Klebsiella pneumoniae [2], 0.13 µg/mL (≈ 0.359 µM) in the experiment on Staphylococcus aureus [3] and 16 µg/mL (≈ 44.1 µM) in the experiment on Pseudomonas aeruginosa [4].

For `CC1(C)CN(c2nc3c(cc2F)c(=O)c(C(=O)O)cn3C(C)(C)C)C[C@@H]1N`, the MIC with Enterococcus faecium (setting [11]) was 4 µg/mL (≈ 10.6 µM); in the experiment on Serratia marcescens (setting [12]), 0.25 µg/mL (≈ 0.664 µM); with Enterococcus faecalis (setting [13]), 4 µg/mL (≈ 10.6 µM); in the experiment with Escherichia coli [1] (setting [14]) it was 0.06 µg/mL (≈ 0.159 µM); with Morganella morganii (setting [15]), 0.25 µg/mL (≈ 0.664 µM); in the experiment on Enterobacter cloacae (setting [16]), 0.25 µg/mL (≈ 0.664 µM). The MIC in the experiment on Klebsiella pneumoniae [2] (setting [17]) was found to be 0.25 µg/mL (≈ 0.664 µM); with Staphylococcus aureus [3] (setting [18]), 0.03 µg/mL (≈ 0.0797 µM); in the experiment on Pseudomonas aeruginosa [4] (setting [19]), 4 µg/mL (≈ 10.6 µM).

Take `CN[C@H]1CCN(c2nc3c(cc2F)c(=O)c(C(=O)O)cn3C(C)(C)C)C1`: the MIC in the experiment with Enterococcus faecium (setting [11]) came to 2 µg/mL (≈ 5.52 µM); in the experiment on Serratia marcescens (setting [12]), 0.25 µg/mL (≈ 0.69 µM); in the experiment on Enterococcus faecalis (setting [13]) it was 1 µg/mL (≈ 2.76 µM); in the experiment with Escherichia coli [1] (setting [14]), 0.03 µg/mL (≈ 0.0828 µM); with Morganella morganii (setting [15]), 0.25 µg/mL (≈ 0.69 µM); in the experiment with Enterobacter cloacae (setting [16]) it was 0.06 µg/mL (≈ 0.166 µM). Moreover, the results for the MIC in the experiment on Klebsiella pneumoniae [2] (setting [17]), in the experiment with Staphylococcus aureus [3] (setting [18]) and in the experiment with Pseudomonas aeruginosa [4] (setting [19]) were 0.06 µg/mL (≈ 0.166 µM), 0.015 µg/mL (≈ 0.0414 µM) and 0.25 µg/mL (≈ 0.69 µM), respectively. Moreover, the ED50 worked out at 0.31 mg/kg with Staphylococcus aureus [5], 1.2 mg/kg in the experiment on Escherichia coli [6], 6.1 mg/kg in the experiment on Pseudomonas aeruginosa [7] and 2.6 mg/kg in the experiment with Klebsiella pneumoniae [8].

What is called MIC is the least concentration at which growth counts as inhibited.
